These results are taken from ChEMBL document CHEMBL2073833, “Biliary excretion of glycyrrhizin in rats: kinetic basis for multiplicity in bile canalicular transport of organic anions” (Pharm Res, 1996).

Conditions in all cases: in vivo
Data set [1] addresses T1, ATP-binding cassette sub-family C member 2 (Rattus norvegicus, UniProt Q63120). Put plainly: TP_TRANSPORTER: inhibition of GR biliary excretion (70.8->23.5 % of dose, DBSP: 3 uM/min/kg iv infusion, GR: 10 mg/kg iv) in SD rat. The class given is functional, organism-based, Sprague-Dawley, Bile. Also noted: dose 10 mg/kg, route intravenous.
The target of data set [2] is T1, ATP-binding cassette sub-family C member 2. Put plainly: TP_TRANSPORTER: inhibition of GR biliary excretion (70.8->23.5 % of dose, DBSP: 3 uM/min/kg iv infusion, GR: 10 mg/kg iv) in EHBR rat. The class given is functional, organism-based, Bile. Also on record: dose 10 mg/kg, route intravenous.
Data set [3] shares this target. Put plainly: TP_TRANSPORTER: biliary excretion in EHBR rat. The class given is functional, organism-based, Bile.
Data set [4] has the same target. In words: TP_TRANSPORTER: biliary excretion in SD rat. The class given is functional, organism-based, Sprague-Dawley, Bile.

T1 sequence (Q63120 whole entry, the tested form may be a part): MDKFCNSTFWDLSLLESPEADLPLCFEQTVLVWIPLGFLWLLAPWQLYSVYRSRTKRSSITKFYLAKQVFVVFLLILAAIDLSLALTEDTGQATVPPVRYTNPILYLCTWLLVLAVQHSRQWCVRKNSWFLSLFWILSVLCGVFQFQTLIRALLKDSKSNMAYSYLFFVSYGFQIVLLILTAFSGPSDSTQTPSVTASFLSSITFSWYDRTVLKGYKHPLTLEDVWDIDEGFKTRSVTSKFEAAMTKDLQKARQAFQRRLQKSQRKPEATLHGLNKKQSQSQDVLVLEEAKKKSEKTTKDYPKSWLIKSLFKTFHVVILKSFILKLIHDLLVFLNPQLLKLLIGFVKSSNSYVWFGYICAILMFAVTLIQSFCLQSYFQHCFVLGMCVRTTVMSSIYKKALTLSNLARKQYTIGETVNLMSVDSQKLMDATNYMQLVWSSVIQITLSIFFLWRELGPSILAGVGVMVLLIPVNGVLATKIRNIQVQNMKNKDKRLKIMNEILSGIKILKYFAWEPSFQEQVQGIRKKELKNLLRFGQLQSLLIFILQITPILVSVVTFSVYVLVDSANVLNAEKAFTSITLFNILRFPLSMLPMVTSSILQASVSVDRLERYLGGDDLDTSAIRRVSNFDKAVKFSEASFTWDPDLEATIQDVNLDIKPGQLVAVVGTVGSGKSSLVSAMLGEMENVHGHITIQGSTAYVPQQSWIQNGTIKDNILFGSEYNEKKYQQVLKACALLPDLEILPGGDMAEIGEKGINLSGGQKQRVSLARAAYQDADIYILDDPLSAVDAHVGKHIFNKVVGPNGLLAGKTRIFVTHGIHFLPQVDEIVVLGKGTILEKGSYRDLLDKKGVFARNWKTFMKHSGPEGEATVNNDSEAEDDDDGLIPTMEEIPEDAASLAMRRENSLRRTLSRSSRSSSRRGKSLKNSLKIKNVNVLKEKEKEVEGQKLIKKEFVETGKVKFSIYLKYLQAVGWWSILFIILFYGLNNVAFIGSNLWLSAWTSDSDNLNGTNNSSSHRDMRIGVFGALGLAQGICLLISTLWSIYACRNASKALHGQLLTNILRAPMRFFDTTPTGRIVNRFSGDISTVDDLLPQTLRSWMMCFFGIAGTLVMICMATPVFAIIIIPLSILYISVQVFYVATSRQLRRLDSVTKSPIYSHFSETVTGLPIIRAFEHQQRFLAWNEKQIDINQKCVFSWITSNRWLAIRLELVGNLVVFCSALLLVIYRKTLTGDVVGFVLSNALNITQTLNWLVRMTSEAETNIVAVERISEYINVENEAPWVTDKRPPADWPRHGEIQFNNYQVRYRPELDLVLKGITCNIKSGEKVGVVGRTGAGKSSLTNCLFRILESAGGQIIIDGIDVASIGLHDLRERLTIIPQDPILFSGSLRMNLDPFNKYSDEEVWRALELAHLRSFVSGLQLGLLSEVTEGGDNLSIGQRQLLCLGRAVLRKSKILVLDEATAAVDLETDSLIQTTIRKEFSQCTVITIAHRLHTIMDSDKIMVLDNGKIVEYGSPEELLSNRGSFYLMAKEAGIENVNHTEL

In the case of `O=C1OC(c2ccc(OS(=O)(=O)O)cc2)(c2ccc(OS(=O)(=O)O)cc2)c2c(Br)ccc(Br)c21` [DIBROMOSULFOPHTHALEIN], the Activity entry in data set [1] and in data set [2] was “inhibitor [+]” each time.

As for `CC1(C)[C@@H](O[C@H]2O[C@H](C(=O)O)[C@@H](O)[C@H](O)[C@H]2O[C@@H]2O[C@H](C(=O)O)[C@@H](O)[C@H](O)[C@H]2O)CC[C@]2(C)[C@H]3C(=O)C=C4[C@@H]5C[C@@](C)(C(=O)O)CC[C@]5(C)CC[C@@]4(C)[C@]3(C)CC[C@@H]12` [GLYCYRRHIZIN], the Activity result in data set [3] and in data set [4] was “substrate [+]” each time.
